Laboratory results from patent US6897209B2, “Labelled factor XIIIa substrates” (GE Healthcare Limited, priority 1997, dated 2005).

Tests used:
[1] = Normal rat biodistribution; assay type: in vivo; details: i.v., male Wistar rats, Mean±SD n=3
Procedure: The resolution of a clot image is dependant on the combination of rate of incorporation of the radiopharmaceutical and its blood/tissues clearance rate. For this reason the biodistribution of several compounds has been determined in rats. Male Wistar (100-150 g) rats were injected i.v. with 0.1-0.2 ml of radiolabelled tracer solution (8 MBq/ml) and dissected at different times post-injection. The % ID in each of the selected tissues was measured. Some animals were kept in metabolism cages to be able to determine the % ID excreted in urine and faeces. The dissection times used for the majority of the agents was 2, 15, 30, 60, 240 min. Data are shown as % ID, Mean±SD, (n=3).

human plasma clots [2] = target: T1, human plasma clots (Homo sapiens, UniProt P00488); test: Incorporation into human plasma clots (in vitro plasma clot assay); assay type: biochemical; details: for % specific uptake*: % retained with thrombin − % retained no thrombin; for % retained in plasma clot assay (with thrombin): human plasma with thrombin and calcium chloride, 60 minutes, ca. 20° C.
T1 construct: Factor XIII is transformed into its active form Factor XIIIa by thrombin in the presence of calcium ions; from tissue; host or cells: human plasma, clotted in vitro with thrombin and calcium chloride
T1 sequence (P00488 39-732): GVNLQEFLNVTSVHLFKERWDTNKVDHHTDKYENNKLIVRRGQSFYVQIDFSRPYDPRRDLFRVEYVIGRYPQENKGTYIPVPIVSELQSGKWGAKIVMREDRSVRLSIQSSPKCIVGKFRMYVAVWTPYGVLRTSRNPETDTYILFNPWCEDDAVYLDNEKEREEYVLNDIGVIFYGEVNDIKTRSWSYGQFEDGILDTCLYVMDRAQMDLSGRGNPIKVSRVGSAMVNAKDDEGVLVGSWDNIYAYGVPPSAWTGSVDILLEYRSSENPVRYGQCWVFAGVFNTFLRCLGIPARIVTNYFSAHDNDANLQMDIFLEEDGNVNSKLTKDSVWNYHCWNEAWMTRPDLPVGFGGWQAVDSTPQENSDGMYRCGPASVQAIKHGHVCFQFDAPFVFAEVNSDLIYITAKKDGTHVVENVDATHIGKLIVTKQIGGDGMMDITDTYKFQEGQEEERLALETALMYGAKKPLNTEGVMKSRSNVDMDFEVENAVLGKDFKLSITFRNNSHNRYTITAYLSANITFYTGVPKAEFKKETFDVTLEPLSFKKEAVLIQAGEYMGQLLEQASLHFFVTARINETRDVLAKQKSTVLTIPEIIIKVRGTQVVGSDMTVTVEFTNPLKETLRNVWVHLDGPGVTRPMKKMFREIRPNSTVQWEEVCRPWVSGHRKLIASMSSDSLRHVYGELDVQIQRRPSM

human plasma clots [3] = test: as above; assay type: biochemical; details: control vials without thrombin and calcium chloride, 60 minutes
[4] = test system: clots induced in rat inferior vena cava; test: Incorporation into clots induced in a rat model (rat inferior vena cava model); assay type: in vivo; details: rat IVC model; for Clot/Blood / Clot/Heart / Clot/Liver / Clot/Lung: 60 min; for % ID/g (clot uptake) / Relative conc (cpm/g of clot by dose/g animal): compound injected 5 min post-induction, clot removed after 60 min
How it was run: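 Male Wistar rats (250-350 g) were anaesthetised with 15% urethane, and compounds were injected 5 min after clot induction. Animals were killed at 60 min, and clots (about 27 mg) and tissues were weighed and counted. Uptake was given as cpm/g clot by dose/g animal and as clot-to-background ratios.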

Factor XIIIa = target: T2, Factor XIIIa (Homo sapiens, UniProt P00488); test: Factor XIIIa dependency of incorporation (dimethylcasein uptake, normal vs Factor XIII deficient plasma); assay type: biochemical; details: 1 KBq/ml, 60 minutes; uptake in normal plasma minus Factor XIII deficient plasma
T2 construct: Factor XIII is transformed into its active form Factor XIIIa by thrombin in the presence of calcium ions; from tissue; host or cells: human plasma
T2 sequence (P00488 39-732 limits assumed): T1 sequence (P00488 39-732)
Procedure: The assay was changed by replacing the mercaptoethanol with aprotinin at a final concentration of 2 μg/ml, and dimethylcasein (DMC) was used instead of casein.

CC(=NO)C(C)(C)NCC(C)(CNC(=O)CCCCCN)CNC(C)(C)C(C)=NO (centres unmarked) [Compound 4, 3,3,6,9,9-pentamethyl-6-N-(6aminohexoyl)aminomethyl-4,8-diazaundecane-2,10-dione dioxime]
% ID Blood ([1]; 2 min post-injection): 10.33 ± 1.2 % ID
% ID GI Tract ([1]; 2 min post-injection): 13.6 ± 0.8 % ID
% ID Heart ([1]; 2 min post-injection): 0.33 + 0.06 % ID
% ID Kidney ([1]; 2 min post-injection): 8.34 ± 2.7 % ID
% ID Liver ([1]; 2 min post-injection): 19.9 ± 0.87 % ID
% ID Lung ([1]; 2 min post-injection): 1.08 ± 0.15 % ID
% ID Muscle ([1]; 2 min post-injection): 22.6 ± 0.8 % ID
% ID Urine ([1]; 2 min post-injection): 2.44 ± 1.68 % ID
% ID Blood ([1]; 30 min post-injection): 0.98 ± 0.18 % ID
% ID GI Tract ([1]; 30 min post-injection): 62.7 ± 2.7 % ID
% ID Heart ([1]; 30 min post-injection): 0.04 + 0.02 % ID
% ID Kidney ([1]; 30 min post-injection): 2.39 ± 0.81 % ID
% ID Liver ([1]; 30 min post-injection): 5.06 ± 0.89 % ID
% ID Lung ([1]; 30 min post-injection): 0.16 % ID
% ID Muscle ([1]; 30 min post-injection): 5.27 ± 0.4 % ID
% ID Urine ([1]; 30 min post-injection): 19.49 ± 1.96 % ID
% ID Blood ([1]; 60 min post-injection): 0.43 ± 0.07 % ID
% ID GI Tract ([1]; 60 min post-injection): 68.6 ± 0.4 % ID
% ID Heart ([1]; 60 min post-injection): 0.02 + 0.02 % ID
% ID Kidney ([1]; 60 min post-injection): 1.49 ± 0.04 % ID
% ID Liver ([1]; 60 min post-injection): 5.3 ± 0.9 % ID
% ID Lung ([1]; 60 min post-injection): 0.1 ± 0.04 % ID
% ID Muscle ([1]; 60 min post-injection): 2.26 ± 0.05 % ID
% ID Urine ([1]; 60 min post-injection): 18.81 ± 0.85 % ID
% ID Blood ([1]; 240 min post-injection): 0.21 ± 0.08 % ID
% ID GI Tract ([1]; 240 min post-injection): 70.1 ± 1.9 % ID
% ID Heart ([1]; 240 min post-injection): 0.01 + 0.04 % ID
% ID Kidney ([1]; 240 min post-injection): 1.51 ± 0.02 % ID
% ID Liver ([1]; 240 min post-injection): 3.81 ± 0.92 % ID
% ID Lung ([1]; 240 min post-injection): 0.06 ± 0.01 % ID
% ID Muscle ([1]; 240 min post-injection): 1.94 ± 0.35 % ID
% ID Urine ([1]; 240 min post-injection): 19.88 ± 3.03 % ID
% specific uptake* (human plasma clots [2]): 2.6%
% retained in plasma clot assay (with thrombin) (human plasma clots [2]): 3%
% retained in plasma clot assay (no thrombin) (human plasma clots [3]): 0.4%
Clot/Blood [4]: 2.3
Clot/Heart [4]: 4.0
Clot/Liver [4]: 0.27
Clot/Lung [4]: 2.7
% ID/g (clot uptake) [4]: 0.18 ± 0.06 % ID/g
Relative conc (cpm/g of clot by dose/g animal) [4]: 0.52 ± 0.2
% specific DMC casein uptake (Factor XIIIa): 2%

CC(CNCc1ccccc1O)(CNCc1ccccc1O)CNC(=O)c1ccc(S(=O)(=O)NCCCCCN)cc1 [Compound 25, N,N′-bis-(2-hydroxybenzyl)-2-(4-N-(5-aminopentyl)amidosulphonyl)benzamidomethyl-2-methyl-propane-1,3-diamine]
% ID Blood ([1]; 2 min post-injection): 23.0 ± 2.9 % ID
% ID GI Tract ([1]; 2 min post-injection): 8.53 ± 0.66 % ID
% ID Heart ([1]; 2 min post-injection): 0.74 + 0.1 % ID
% ID Kidney ([1]; 2 min post-injection): 5.37 ± 1.3 % ID
% ID Liver ([1]; 2 min post-injection): 13.6 ± 2.47 % ID
% ID Lung ([1]; 2 min post-injection): 3.42 ± 0.39 % ID
% ID Muscle ([1]; 2 min post-injection): 25.7 ± 2.0 % ID
% ID Urine ([1]; 2 min post-injection): 0.11 ± 0.06 % ID
% ID Blood ([1]; 15 min post-injection): 3.9 ± 0.17 % ID
% ID GI Tract ([1]; 15 min post-injection): 45.68 ± 4.1 % ID
% ID Heart ([1]; 15 min post-injection): 0.16 + 0.01 % ID
% ID Kidney ([1]; 15 min post-injection): 7.13 ± 0.4 % ID
% ID Liver ([1]; 15 min post-injection): 13.5 ± 0.14 % ID
% ID Lung ([1]; 15 min post-injection): 1.37 ± 0.03 % ID
% ID Muscle ([1]; 15 min post-injection): 8.93 ± 0.38 % ID
% ID Urine ([1]; 15 min post-injection): 4.62 ± 2.9 % ID
% ID Blood ([1]; 30 min post-injection): 2.12 ± 0.34 % ID
% ID GI Tract ([1]; 30 min post-injection): 54.7 ± 2.09 % ID
% ID Heart ([1]; 30 min post-injection): 0.1 + 0.03 % ID
% ID Kidney ([1]; 30 min post-injection): 5.6 ± 0.1 % ID
% ID Liver ([1]; 30 min post-injection): 9.66 ± 1.65 % ID
% ID Lung ([1]; 30 min post-injection): 1.17 ± 0.01 % ID
% ID Muscle ([1]; 30 min post-injection): 6.43 ± 0.41 % ID
% ID Urine ([1]; 30 min post-injection): 11.6 ± 2.0 % ID
% ID Blood ([1]; 60 min post-injection): 1.84 ± 0.19 % ID
% ID GI Tract ([1]; 60 min post-injection): 55.87 ± 2.5 % ID
% ID Heart ([1]; 60 min post-injection): 0.08 + 0.03 % ID
% ID Kidney ([1]; 60 min post-injection): 4.24 ± 0.4 % ID
% ID Liver ([1]; 60 min post-injection): 6.73 ± 0.48 % ID
% ID Lung ([1]; 60 min post-injection): 0.96 ± 0.11 % ID
% ID Muscle ([1]; 60 min post-injection): 4.95 ± 0.09 % ID
% ID Urine ([1]; 60 min post-injection): 17.5 ± 1.7 % ID
% ID Blood ([1]; 240 min post-injection): 0.62 ± 0.16 % ID
% ID GI Tract ([1]; 240 min post-injection): 71.3 ± 0.7 % ID
% ID Heart ([1]; 240 min post-injection): 0.02 + 0.01 % ID
% ID Kidney ([1]; 240 min post-injection): 3.19 ± 0.1 % ID
% ID Liver ([1]; 240 min post-injection): 3.97 ± 0.53 % ID
% ID Lung ([1]; 240 min post-injection): 0.21 ± 0.05 % ID
% ID Muscle ([1]; 240 min post-injection): 1.3 ± 0.38 % ID
% ID Urine ([1]; 240 min post-injection): 16.81 ± 0.43 % ID
% specific uptake* (human plasma clots [2]): 12.9%
% retained in plasma clot assay (with thrombin) (human plasma clots [2]): 15%
% retained in plasma clot assay (no thrombin) (human plasma clots [3]): 1.9%
Clot/Blood [4]: 3.3
Clot/Heart [4]: 5
Clot/Liver [4]: 0.65
Clot/Lung [4]: 1.5
% ID/g (clot uptake) [4]: 0.29 ± 0.09 % ID/g
Relative conc (cpm/g of clot by dose/g animal) [4]: 0.8 ± 0.2
% specific DMC casein uptake (Factor XIIIa): 26%
